# Source: patent publication US20230097883A1, “ERGOTHIONEINE PET COMPOUNDS AND METHODS OF USE THEREOF” (VANDERBILT UNIVERSITY, priority 2021, published 2023)
# “Also recorded” adds a separate entry of the source.
# Assays:
# [1] = tested on: 5XFAD mice; experiment: Rotarod after ERGO treatment; assay type: in vivo, mouse; settings: ERGO-treated 5XFAD versus non-treated 5XFAD and WT, three days of testing
# Protocol: (§1) To address our primary question whether longitudinal consumption of ERGO as a potent antioxidant benefit the brain, three cohorts of animals (n=12 non-treated WT control, n=12 non-treated 5XFAD, and n=18 ERGO-treated 5XFAD) were used (FIG. 3.2A). Starting at the age of 8 weeks, the animals were treated with high doses of ERGO solution (25-50 mg/Kg) formulated in double distilled (dd) water via oral gavage three times a week over the course of eight weeks. To reduce bias in the behavioral experiments with regard to the potential stress during gavage treatment, non-treated animals underwent the identical gavage process with the vehicle, water, only. The efficacy of the therapy was evaluated by behavioral testing, followed by three different non-invasive PET imaging sessions to assess biomarkers related to AD pathology. In addition to assessing Abeta levels and glucose metabolism using the [^11C]PIB and [^18F]FDG probes, respectively; we also tested for the first time whether oxidative stress could be used as an indicator of response to therapy using the [^11C]ERGO PET radioligand. Finally, animals were euthanized, and the brains were collected for immunohistochemical analysis. […]
# Neuromuscular ability and motor learning were assessed using a standard rotarod (Ugo Basile). […] Time to fall was recorded automatically when mice fell from the rod onto a base plate.
# [2] = tested on: 5XFAD mice; experiment: Novel object recognition after ERGO treatment; assay type: in vivo, mouse; settings: ERGO-treated 5XFAD versus non-treated 5XFAD and WT, final test trial
# Protocol: as §1, with “pathology.” for “pathology. In addition to assessing Abeta levels and glucose metabolism using the [^11C]PIB and [^18F]FDG probes, respectively; we also tested for the first time whether oxidative stress could be used as an indicator of response to therapy using the [^11C]ERGO PET radioligand. Finally, animals were euthanized, and the brains were collected for immunohistochemical analysis.”
# Mice were first allowed to habituate to an open arena for 5 min (white acrylic box, approximately 40 cm^2) located under a camera to record position and movement during trials. […] Preference for either object was inferred from exploratory proximity which was recorded automatically using AnyMaze using a target area comprising a circle with diameter 2-cm larger than the target objects. […]
# [3] = tested on: HeLa cells; experiment: DCFH-DA ROS scavenging assay in HeLa cells; assay type: cell-based
# Description: We used a commercially available DCFH-DA (2′,7′-dichlorodihydrofluorescein diacetate) probe to assess the ROS scavenging power of ERGO in HeLa and neuroblastoma SH-SY5Y cells. Upon penetrating the cytoplasm, DCFH-DA is deacetylated by endogenous esterases to a non-fluorescent intermediate, followed by oxidation by free radicals. This generates a continuous and extended conjugation system, resulting in the production of highly fluorescent DCF (2′ 7′-dichlorofluorescein). In an aqueous condition, DCF has a maximal excitation and emission of 495 nm and 529 nm, respectively. Well-adhered HeLa or SH-SY5Y cells previously incubated with DCFH-DA were exposed to a commercial ROS initializer and ERGO concentrations ranging from 0-100 mM. […] Each point in the assay was measured in pentaplicate, p<0.0001.
# On day 1, HeLa cells or SH-SY5Y cells were seeded into a 96-well plate with a density of 10,000 cells/mL. […] Immediately afterwards, fluorescence measurement began using a microplate reader (Biotek Industries, Agilent Technologies, Winooski, Vt., USA) with an excitation and emission wavelength of 485 nm and 528 nm, respectively. Each ERGO concentration was measured in pentaplicate.
smiles,measurement,setting,value
"C[N+](C)(C)[C@@H](Cc1c[nH]c(=S)[nH]1)C(=O)[O-] [ERGO, L-ergothioneine]","rotarod latency to fall, group differences",[1],no differences among the groups
same,discrimination index,[2],did not vary among the groups
same,DCF fluorescence signal (ROS),[3]; ERGO 100 mM,nearly negligible; also recorded: quenches the fluorescence totally
same,DCF fluorescence signal (ROS),[3]; ERGO starting from 5 mM,attenuates the fluorescence significantly
